# Measurements taken from patent publication US20240124451A1, “PHTHALAZINE DERIVATIVES USEFUL AS INHIBITORS OF NOD-LIKE RECEPTOR PROTEIN 3” (Merck Sharp & Dohme LLC, priority 2022, published 2024).
# Molecular target: T1, NLRP3 inflammasome (Homo sapiens, UniProt Q96P20)
# T1 construct: host or cells: THP-1 human monocytic cells, PMA-treated, stimulated with gramicidin
# Test: ASC-SPECK formation in THP-1 cells after gramicidin stimulation (NLRP3 inflammasome activation)
# Assay type: cell-based
# Details: PMA-treated human monocytic THP-1 cells, compound 1 h before 12.5 ug/ml gramicidin, 3 h, ASC SPECK imaging; read-out: EC50 (nM) for Examples that inhibit NLRP3 inflammasome activation
# Description: The ability of compounds to inhibit NLRP3 inflammasome activation was determined in vitro by monitoring formation of the ASC-SPECK in human monocytic THP-1 cells after stimulation. THP-1 cells (ATCC catalog #TIB-202) were maintained in complete growth media containing Roswell Park Memorial Institute RPMI (ATCC catalog #30-2001), 10% heat inactivated fetal bovine serum, 1× penicillin/streptomycin and 0.05 mM 2-mercaptoethanol. At the start of the assay, undifferentiated THP-1 cells were plated at a density of 20,000 cells per well in a 384-well plate (Poly-D-lysine coated Cell Carrier Ultra microplate, Perkin Elmer catalog #6057500) in complete growth media supplemented with 10 ng/ml phorbol 12-myristate 13-acetate (PMA; Sigma catalog #P8139), and then incubated overnight. The next day, media was replaced with assay media [RPMI (Gibco catalog #11875-093), 0.01% bovine serum albumin (BSA)]. Compounds were serially diluted in DMSO and then added to wells one hour prior to the addition of 12.5 ug/ml Gramicidin (Enzo Lifescience, catalog #ALX-350-233-M005). All incubations were carried out at 37° C. (5% CO2/95% air). Following a 3-hour treatment with gramicidin, cells are fixed with 4% paraformaldehyde and stored at 4° C. until immunofluorescence staining.
# Immunofluorescence staining: Anti-ASC antibody (MBL catalog #D086-3) was desalted and labeled with Alexa 488 antibody labeling kit (Thermo catalog #A20181) prior to use as described below. After fixation, the following steps were carried out at room temperature. Cells were first permeabilized with 0.3% Triton X-100 in phosphate-buffered saline (PBS) for 15 minutes and then incubated in blocking buffer containing 5% goat serum, 0.3% tween-20 and 0.03% sodium azide in PBS for 1 hour. Cells were stained with a mixture of ASC-Alexa 488 antibody (diluted 1:200 in blocking buffer) and nuclear stain DRAQ5 (1:5000 in blocking buffer, Thermo catalog #62251) in blocking buffer for 1 hour. Following a wash with 0.3% Tween-20 in PBS, plates were imaged with an Opera Phenix High Content Screening System. The number of DRAQ5 positive cells containing ASC SPECKS were quantified in each well.
# Data analysis: EC50 values were calculated by standard curve-fitting analysis using an internally developed program in TIBCO Spotfire software.
# T1 sequence (Q96P20 whole entry): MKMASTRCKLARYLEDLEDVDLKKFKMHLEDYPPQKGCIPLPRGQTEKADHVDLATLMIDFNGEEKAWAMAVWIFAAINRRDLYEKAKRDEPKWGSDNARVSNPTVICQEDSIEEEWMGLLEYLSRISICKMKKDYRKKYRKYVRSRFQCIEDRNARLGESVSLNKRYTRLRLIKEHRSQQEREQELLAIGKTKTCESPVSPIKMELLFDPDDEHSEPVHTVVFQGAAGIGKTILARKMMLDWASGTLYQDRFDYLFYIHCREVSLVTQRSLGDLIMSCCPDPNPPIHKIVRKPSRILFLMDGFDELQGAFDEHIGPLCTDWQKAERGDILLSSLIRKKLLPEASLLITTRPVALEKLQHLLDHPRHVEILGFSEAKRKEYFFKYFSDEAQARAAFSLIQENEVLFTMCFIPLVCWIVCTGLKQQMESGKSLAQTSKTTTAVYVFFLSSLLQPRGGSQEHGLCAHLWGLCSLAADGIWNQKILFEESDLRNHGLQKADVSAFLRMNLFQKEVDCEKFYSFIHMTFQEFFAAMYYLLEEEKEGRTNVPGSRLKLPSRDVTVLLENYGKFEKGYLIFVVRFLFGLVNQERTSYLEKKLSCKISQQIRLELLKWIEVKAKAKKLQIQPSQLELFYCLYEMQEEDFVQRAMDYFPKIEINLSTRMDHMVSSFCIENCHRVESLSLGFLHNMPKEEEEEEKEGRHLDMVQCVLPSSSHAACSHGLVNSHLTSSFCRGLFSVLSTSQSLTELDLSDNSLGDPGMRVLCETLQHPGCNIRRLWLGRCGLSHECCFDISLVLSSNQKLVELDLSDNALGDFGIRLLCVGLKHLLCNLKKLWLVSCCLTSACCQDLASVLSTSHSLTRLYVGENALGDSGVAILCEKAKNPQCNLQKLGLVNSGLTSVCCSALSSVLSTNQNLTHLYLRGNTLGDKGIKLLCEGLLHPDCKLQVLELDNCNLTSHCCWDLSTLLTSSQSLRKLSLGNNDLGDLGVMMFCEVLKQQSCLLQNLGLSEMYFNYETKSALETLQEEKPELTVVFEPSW
row,EC50 [nM],SMILES
1,1340,"C[C@@H]1C[C@@](O)(c2nnc(-c3ccc(C(F)(F)F)cc3O)c3cccnc23)C[C@H](C)O1 [Example 55, (2R,4r,6S)-4-(5-(2-hydroxy-4-(trifluoromethyl)phenyl)pyrido[2,3-d]-pyridazin-8-yl)-2,6-dimethyltetrahydro-2H-pyran-4-ol]"
2,90,C[C@]1(O)CCN(c2nnc(-c3ccc(C(F)(F)F)cc3O)c3ccc(C(F)F)nc23)C1 [Example 56]
3,1570,C[C@]1(O)CCN(c2nnc(-c3ccc(C(F)(F)F)cc3O)c3cc(C(F)F)cnc23)C1 [Example 57]
